Measured values reported in US20260053811A1, “METHODS OF TREATING HYPERTENSION IN OBESE SUBJECTS” (Mineralys Therapeutics, Inc., priority 2022, published 2026).

Test system: hypertensive subjects
Experiment: Seated automated office blood pressure (AOBP) in randomized, placebo-controlled, dose-ranging study
Format: in vivo, human
Details: Part 1, 100 mg QD
Method: A randomized, double-blinded, placebo-controlled, dose-ranging, multicenter study was conducted to evaluate the effect of orally administered Compound A HBr on blood pressure for the treatment of hypertension in male and female subjects ≥18 years of age.
The study consists of two parts. For enrollment into Part 1 of the study, a subject's value of plasma renin activity (PRA) must be ≤1 ng/mL/h based on morning measurement. If the value of PRA >1 ng/mL/h based on morning measurement, then subjects may be eligible to enter Part 2 of the study.
For Part 1, 163 enrolled subjects ≥18 years of age were randomized into 6 equal treatment groups (1:1:1:1:1:1) to 12.5 mg BID, 25 mg BID, 12.5 mg QD, 50 mg QD, 100 mg QD, or placebo. After a review of interim clinical data, the 2 lowest dose levels (12.5 mg QD and 12.5 mg BID) were stopped for future randomization due to a lack of consistent meaningful reduction of blood pressure, but the patients randomized to that point remained in the study through completion. Thus, after the review of interim clinical data, subjects were randomized into 4 equal treatment groups (1:1:1:1) to 25 mg BID, 50 mg QD, 100 mg QD, or placebo.
For Part 2, 36 enrolled subjects ≥18 years of age were randomized (5:1) to either 100 mg QD Compound A HBr or placebo such that the Compound A HBr treatment group consisted of approximately 30 subjects and the placebo treatment group will consist of approximately 6 subjects.
Subjects orally administered the assigned study drug (Compound A HBr or placebo) according to the assigned dosing regimen for 8 weeks beginning on Study Day 1. All subjects in Part 1 (regardless of dosing group) received BID dosing to preserve the integrity of the blind; active drug is administered as the morning dose for all QD dose groups. Subjects returned to the research facility or were seen by the clinical investigator or approved home health care professional at the end of Study Weeks 1, 2, 3, 4, 5, 6, 7, and 8 (±2 days) for protocol-defined efficacy and safety assessments and procedures, assessment of adverse events (AEs), and confirmation of compliance with study drug usage. Subjects also completed a telephone visit and blood pressure (BP) check at home approximately 3 days post last dose of study drug. Subjects attended up to 14 full clinic visits, including a pre-Screening visit, a Screening/start of Placebo Run-in visit, a second visit during Placebo Run-in, a clinic visit to initiate the ABPM procedure, a Randomization visit, 8 weekly visits during double-blind treatment, and an end-of-study visit scheduled 4 weeks after the last study treatment for final efficacy and safety assessments.
An automated oscillometric sphygmomanometer device was used to measure the subjects' systolic and diastolic blood pressure in office after approximately 5 minutes of rest in the seated position.
The primary endpoint is the change in office-measured (mean of last 2 of 5 unattended measurements using an automated oscillometric sphygmomanometer device after approximately 5 minutes of rest in the seated position) systolic blood pressure (SBP) from baseline to the end of Study Week 8.
Secondary endpoints of this study were: • (a) Change in 24-hour ambulatory blood pressure monitoring (ABPM) parameters (systolic and diastolic) from baseline to the end of Study Week 7. • (b) Change in office-measured SBP from baseline to the end of Study Weeks 1, 2, 3, 4, 5, 6, and 7. • (c) Change in office-measured diastolic blood pressure (DBP) from baseline to the end of Study Weeks 1, 2, 3, 4, 5, 6, 7, and 8. • (d) Proportion of subjects who achieve office-measured BP of ≤130/80 mm Hg by the end of Study Week 8.

[1] = Systolic Blood Pressure Tertile at Baseline High
[2] = Systolic Blood Pressure Tertile at Baseline Low
[3] = Systolic Blood Pressure Tertile at Baseline Middle
[4] = Thiazide Diuretic Use at Baseline No

## CC(=O)N[C@H]1CC[C@H](NC(=O)CN2CCN(c3nncc(-c4ccc(C)cc4)n3)CC2)CC1 [Compound A HBr]
Age ≥80 yr
  Mean (SD) Automated Office-Measured Diastolic Blood Pressure at Wk 8: 65.75 (11.73) mmHg
  Mean (SD) Automated Office-Measured Systolic Blood Pressure at Wk 8: 125.00 (8.04) mmHg
  Mean (SD) Change from Baseline at Week 8 in Automated Office-Measured Diastolic Blood Pressure: −4.75 (8.03) mmHg
  Mean (SD) Change from Baseline at Week 8 in Automated Office-Measured Systolic Blood Pressure: −18.13 (12.34) mmHg
BMI 25−30 kg/m^2
  Mean (SD) Automated Office-Measured Diastolic Blood Pressure at Wk 8: 72.67 (9.33) mmHg
  Mean (SD) Change from Baseline at Week 8 in Automated Office-Measured Diastolic Blood Pressure: −6.50 (7.61) mmHg
BMI <25 kg/m^2
  Mean (SD) Automated Office-Measured Diastolic Blood Pressure at Wk 8: 78.33 (19.14) mmHg
  Mean (SD) Change from Baseline at Week 8 in Automated Office-Measured Diastolic Blood Pressure: −0.67 (7.01) mmHg
BMI >30 kg/m^2
  Mean (SD) Automated Office-Measured Diastolic Blood Pressure at Wk 8: 71.42 (7.10) mmHg
  Mean (SD) Change from Baseline at Week 8 in Automated Office-Measured Diastolic Blood Pressure: −6.88 (7.81) mmHg
BMI at baseline 25-30 kg/m^2
  Mean (SD) Automated Office-Measured Systolic Blood Pressure at Wk 8: 129.67 (10.05) mmHg
  Mean (SD) Change from Baseline at Week 8 in Automated Office-Measured Systolic Blood Pressure: −11.17 (11.94) mmHg
BMI at baseline <25 kg/m^2
  Mean (SD) Automated Office-Measured Systolic Blood Pressure at Wk 8: 146.00 (18.33) mmHg
  Mean (SD) Change from Baseline at Week 8 in Automated Office-Measured Systolic Blood Pressure: −7.83 (17.47) mmHg
BMI at baseline >30 kg/m^2
  Mean (SD) Automated Office-Measured Systolic Blood Pressure at Wk 8: 129.00 (15.28) mmHg
  Mean (SD) Change from Baseline at Week 8 in Automated Office-Measured Systolic Blood Pressure: −18.50 (13.40) mmHg
Race Black or AA
  Mean (SD) Automated Office-Measured Diastolic Blood Pressure at Wk 8: 71.92 (10.83) mmHg
  Mean (SD) Automated Office-Measured Systolic Blood Pressure at Wk 8: 129.92 (16.18) mmHg
  Mean (SD) Change from Baseline at Week 8 in Automated Office-Measured Diastolic Blood Pressure: −7.38 (7.65) mmHg
  Mean (SD) Change from Baseline at Week 8 in Automated Office-Measured Systolic Blood Pressure: −17.13 (11.55) mmHg
Race Other
  Mean (SD) Automated Office-Measured Diastolic Blood Pressure at Wk 8: 74.00 (8.26) mmHg
  Mean (SD) Automated Office-Measured Systolic Blood Pressure at Wk 8: 132.54 (12.47) mmHg
  Mean (SD) Change from Baseline at Week 8 in Automated Office-Measured Diastolic Blood Pressure: −3.69 (7.91) mmHg
  Mean (SD) Change from Baseline at Week 8 in Automated Office-Measured Systolic Blood Pressure: −11.27 (14.54) mmHg
Seated SBP Tertile High
  Mean (SD) Automated Office-Measured Diastolic Blood Pressure at Wk 8: 72.11 (11.78) mmHg
  Mean (SD) Change from Baseline at Week 8 in Automated Office-Measured Diastolic Blood Pressure: −8.78 (8.56) mmHg
Seated SBP Tertile Low
  Mean (SD) Automated Office-Measured Diastolic Blood Pressure at Wk 8: 73.86 (11.01) mmHg
  Mean (SD) Change from Baseline at Week 8 in Automated Office-Measured Diastolic Blood Pressure: −0.29 (6.44) mmHg
Seated SBP Tertile Middle
  Mean (SD) Automated Office-Measured Diastolic Blood Pressure at Wk 8: 73.22 (5.97) mmHg
  Mean (SD) Change from Baseline at Week 8 in Automated Office-Measured Diastolic Blood Pressure: 6.17 (6.64) mmHg
Sex Female
  Mean (SD) Automated Office-Measured Diastolic Blood Pressure at Wk 8: 70.87 (10.51) mmHg
  Mean (SD) Automated Office-Measured Systolic Blood Pressure at Wk 8: 132.40 (15.95) mmHg
  Mean (SD) Change from Baseline at Week 8 in Automated Office-Measured Diastolic Blood Pressure: −3.67 (7.27) mmHg
  Mean (SD) Change from Baseline at Week 8 in Automated Office-Measured Systolic Blood Pressure: −13.17 (12.05) mmHg
Sex Male
  Mean (SD) Automated Office-Measured Diastolic Blood Pressure at Wk 8: 76.20 (6.81) mmHg
  Mean (SD) Automated Office-Measured Systolic Blood Pressure at Wk 8: 129.60 (11.45) mmHg
  Mean (SD) Change from Baseline at Week 8 in Automated Office-Measured Diastolic Blood Pressure: −8.15 (8.28) mmHg
  Mean (SD) Change from Baseline at Week 8 in Automated Office-Measured Systolic Blood Pressure: −15.45 (15.48) mmHg
[1]
  Mean (SD) Automated Office-Measured Systolic Blood Pressure at Wk 8: 139.11 (15.36) mmHg
  Mean (SD) Change from Baseline at Week 8 in Automated Office-Measured Systolic Blood Pressure: −19.06 (12.91) mmHg
[2]
  Mean (SD) Automated Office-Measured Systolic Blood Pressure at Wk 8: 129.86 (9.26) mmHg
  Mean (SD) Change from Baseline at Week 8 in Automated Office-Measured Systolic Blood Pressure: −4.71 (8.58) mmHg
[3]
  Mean (SD) Automated Office-Measured Systolic Blood Pressure at Wk 8: 124.56 (13.30) mmHg
  Mean (SD) Change from Baseline at Week 8 in Automated Office-Measured Systolic Blood Pressure: −16.39 (13.97) mmHg
[4]
  Automated Office-Measured Diastolic Blood Pressure, Week 8, Mean (SD): 72.40 (10.54) mmHg
  Mean (SD) Automated Office-Measured Systolic Blood Pressure at Wk 8: 135.80 (9.10) mmHg
